Target: Glutamate receptor 3 (Rattus norvegicus, UniProt P19492)
Sequence (P19492 whole entry): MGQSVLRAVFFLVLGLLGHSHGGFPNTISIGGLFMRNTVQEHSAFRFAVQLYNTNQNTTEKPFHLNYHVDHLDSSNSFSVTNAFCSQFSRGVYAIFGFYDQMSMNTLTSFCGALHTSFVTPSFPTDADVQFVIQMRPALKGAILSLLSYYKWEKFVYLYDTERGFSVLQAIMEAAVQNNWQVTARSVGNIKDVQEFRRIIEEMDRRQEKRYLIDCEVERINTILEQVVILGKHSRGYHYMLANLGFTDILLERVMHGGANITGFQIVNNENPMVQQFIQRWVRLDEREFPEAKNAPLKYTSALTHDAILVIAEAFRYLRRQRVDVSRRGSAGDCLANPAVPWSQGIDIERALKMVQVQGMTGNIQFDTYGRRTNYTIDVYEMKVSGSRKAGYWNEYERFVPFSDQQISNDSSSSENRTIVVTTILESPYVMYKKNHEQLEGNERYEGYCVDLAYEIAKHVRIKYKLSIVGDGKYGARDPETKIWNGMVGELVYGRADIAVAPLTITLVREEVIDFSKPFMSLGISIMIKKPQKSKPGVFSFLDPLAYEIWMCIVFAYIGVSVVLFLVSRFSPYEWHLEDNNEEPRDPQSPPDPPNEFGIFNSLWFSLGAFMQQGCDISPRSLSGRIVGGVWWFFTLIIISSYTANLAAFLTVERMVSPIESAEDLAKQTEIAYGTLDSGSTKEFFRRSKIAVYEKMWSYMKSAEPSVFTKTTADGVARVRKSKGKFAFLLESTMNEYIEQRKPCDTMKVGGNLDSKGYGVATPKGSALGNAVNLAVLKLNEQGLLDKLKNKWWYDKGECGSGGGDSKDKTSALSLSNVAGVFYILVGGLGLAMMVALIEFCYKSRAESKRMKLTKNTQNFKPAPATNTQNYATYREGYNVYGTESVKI

Row | Structure (SMILES) | Ki [µM]
1 | CNC(Cc1c(C)o[nH]c1=O)C(=O)O (configuration not stated) [N-methyl-AMPA] | > 10
2 | O=C(O)C1NCCc2o[nH]c(=O)c21 (configuration not stated) [CAS_129091] | > 10
3 | Cc1o[nH]c(=O)c1CC(C(=O)O)N(C)C (configuration not stated) [N,N-dimethyl-AMPA] | > 10

Target: Glutamate receptor ionotropic, NMDA 1 (Rattus norvegicus, UniProt P35439)

Row | Structure (SMILES) | Ki [µM]
4 | Cc1o[nH]c(=O)c1C(C(=O)O)N(C)C (configuration not stated) [N,N-dimethyl-AMAA] | > 10
5 | O=C(O)c1cccnc1C(=O)O [pyridine-2,3-dicarboxylic acid] | > 10
6 | CNC(C(=O)O)c1c(C)o[nH]c1=O (configuration not stated) | > 10
7 | O=C(O)C1NCCc2o[nH]c(=O)c21 (configuration not stated) [CAS_129091] | > 10

From BindingDB's records for doi:10.1016/0922-4106(90)90035-v (Royal Danish School of Pharmacy, 1990)
